Source: patent US8455665B2, “3-phenoxymethylpyrrolidine compounds” (Theravance, Inc., priority 2009, dated 2013)

How the values were obtained:
[1] = molecular target: T1, SERT (Homo sapiens, UniProt P31645); experiment: hSERT neurotransmitter uptake assay (3H-5-HT); format: cell-based; set-up: expressed in transfected cells; host or cells: HEK-293; conditions: serotonin reuptake inhibition, HEK-293 hSERT cells, 3H-5-HT (no asterisk); read-out: SERT pIC50 (converted)
Description: (§1) Neurotransmitter uptake assays were used to measure inhibition of ^3H-serotonin (^3H-5-HT), ^3H-norepinephrine (^3H-NE), and ^3H-dopamine (^3H-DA) uptake into cells expressing the respective transporter (hSERT, hNET or hDAT) in order to determine the pIC50 values of test compounds at the transporters.
(§2) HEK-293 derived cell lines stably-transfected with hSERT, hNET, or hDAT, respectively, were grown in DMEM medium supplemented with 10% dialyzed FBS (for hSERT) or FBS (for hNET and hDAT), 100 μg/ml penicillin, 100 μg/ml streptomycin, 2 mM L-glutamine and 250 μg/ml of the aminoglycoside antibiotic G418 (for hSERT and hNET) or 800 ug/ml (for hDAT), in a 5% CO2 humidified incubator at 37° C. When cultures reached 80% confluence, the cells were washed thoroughly in PBS (without Ca^2+ and Mg^2+) and lifted with 5 mM EDTA in PBS. Cells were harvested by centrifugation at 1100 rpm for 5 minutes, washed once by resuspension in PBS, then centrifuged. The supernatant was discarded and the cell pellet resuspended, by gentle trituration, in room temperature Krebs-Ringer bicarbonate buffer containing HEPES (10 mM), CaCl2 (2.2 mM), ascorbic acid (200 μM) and pargyline (200 μM), pH 7.4. The final concentration of cells in the cell suspension was 7.5×10^4 cells/ml, 1.25×10^5 cells/ml, and 5.0×10^4 cells/ml for SERT, NET, and DAT cell lines, respectively.
(§3) Neurotransmitter uptake assays were performed in a 96-well assay plate in a total volume of 400 μl assay buffer (Krebs-Ringer bicarbonate buffer containing HEPES (10 mM), CaCl2 (2.2 mM), ascorbic acid (200 μM) and pargyline (200 μM), pH 7.4) with 1.5×10^4 and 2.5×10^4 cells, for SERT, NET, and DAT, respectively. […] Stock solutions (10 mM in DMSO) of test compound were prepared and serial dilutions prepared using 50 mM Tris-HCl, 120 mM NaCl, 5 mM KCl, pH 7.4, 0.1% BSA, 400 μM ascorbic acid. Test compounds were incubated for 30 minutes at 37° C. with the respective cells, prior to addition of radiolabeled neurotransmitter, ^3H-5-HT (20 nM final concentration), ^3H-NE (50 nM final concentration) or ^3H-DA (100 nM final concentration). Non-specific neurotransmitter uptake was determined in the presence of 2.5 μM duloxetine, 2.5 μM desipramine, or 10 uM GBR-12909 (each in Dilution Buffer) for the hSERT, hNET, or hDAT assays, respectively.
(§4) Following a 10 minute incubation, at 37° C., with radioligand, the cells were harvested by rapid filtration over a 96-well UniFilter GF/B plate, pretreated with 1% BSA, and washed 6 times with 650 μl wash buffer (ice cold PBS). Plates were dried overnight at 37° C., ˜45 μl of MicroScint™-20 (Perkin Elmer) added and incorporated radioactivity quantitated via liquid scintillation spectroscopy Inhibition curves were analyzed using GraphPad Prism Software package (GraphPad Software, Inc., San Diego, Calif.). IC50 values were generated from concentration response curves using the Sigmoidal Dose Response (variable slope) algorithm in Prism GraphPad.
Target sequence in this assay (P31645 whole entry): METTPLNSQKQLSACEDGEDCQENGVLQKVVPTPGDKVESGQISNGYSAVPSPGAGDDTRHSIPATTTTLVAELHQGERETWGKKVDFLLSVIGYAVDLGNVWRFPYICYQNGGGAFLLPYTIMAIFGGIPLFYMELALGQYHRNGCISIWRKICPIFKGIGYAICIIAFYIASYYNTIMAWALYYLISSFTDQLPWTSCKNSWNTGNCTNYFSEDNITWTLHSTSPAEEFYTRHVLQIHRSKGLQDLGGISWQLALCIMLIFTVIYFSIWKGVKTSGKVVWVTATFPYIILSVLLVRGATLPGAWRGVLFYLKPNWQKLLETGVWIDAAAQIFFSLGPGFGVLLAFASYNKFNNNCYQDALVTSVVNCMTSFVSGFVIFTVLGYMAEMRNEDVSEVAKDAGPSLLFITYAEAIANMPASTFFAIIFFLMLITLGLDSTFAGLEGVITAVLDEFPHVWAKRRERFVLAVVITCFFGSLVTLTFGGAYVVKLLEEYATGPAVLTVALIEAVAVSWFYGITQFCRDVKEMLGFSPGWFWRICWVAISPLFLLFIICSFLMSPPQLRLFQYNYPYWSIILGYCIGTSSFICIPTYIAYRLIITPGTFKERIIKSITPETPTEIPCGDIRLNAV

[2] = molecular target: T1, SERT; experiment: hSERT membrane radioligand binding assay (3H-citalopram); set-up: expressed in transfected cells; host or cells: HEK-293; conditions: hSERT membranes (HEK-293), 1.0 nM 3H-citalopram; for Ki: read-out: SERT pKi (converted)
Description: (§5) Membrane radioligand binding assays were used to measure inhibition of labeled ligand (^3H-citalopram or ^3H-nisoxetine or ^3H-WIN35428) binding to membranes prepared from cells expressing the respective human recombinant transporter (hSERT or hNET or hDAT) in order to determine the pKi values of test compounds at the transporters.
(§6) Recombinant human embryonic kidney (HEK-293) derived cell lines stably transfected with hSERT or hNET, respectively, were grown in DMEM medium supplemented with 10% dialyzed FBS (for hSERT) or FBS (for hNET), 100 μg/ml penicillin, 100 μg/ml streptomycin, 2 mM L-glutamine and 250 μg/ml of the aminoglycoside antibiotic G418, in a 5% CO2 humidified incubator at 37° C. When cultures reached 80% confluence, the cells were washed thoroughly in PBS (without Ca^2+ and Mg^2+) and lifted with 5 mM EDTA in PBS. Cells were pelleted by centrifugation, resuspended in lysis buffer (10 mM Tris-HCl, pH7.5 containing 1 mM EDTA), homogenized, pelleted by centrifugation, then resuspended in 50 mM Tris-HCl, pH 7.5 and 10% sucrose at 4° C. Protein concentration of the membrane suspension was determined using a Bio-Rad Bradford Protein Assay kit. Membranes were snap frozen and stored at −80° C. Chinese hamster ovary membranes expressing hDAT (CHO-DAT) were purchased from PerkinElmer and stored at −80° C.
(§7) Binding assays were performed in a 96-well assay plate in a total volume of 200 μl assay buffer (50 mM Tris-HCl, 120 mM NaCl, 5 mM KCl, pH 7.4) with 0.5, 1, and 3 μg membrane protein, for SERT, NET and DAT, respectively.
(§8) Stock solutions (10 mM in DMSO) of test compound were prepared and serial dilutions made using Dilution Buffer (50 mM Tris-HCl, 120 mM NaCl, 5 mM KCl, pH 7.4, 0.1% BSA, 400 μM ascorbic acid). Non-specific radioligand binding was determined in the presence of 1 μM duloxetine, 1 μM desipramine or 10 μM GBR12909 (each in Dilution Buffer) for the hSERT, hNET or hDAT assays, respectively.
(§9) Following a 60 minute incubation at 22° C. (or a period sufficient to reach equilibrium), the membranes were harvested by rapid filtration over a 96-well UniFilter GF/B plate, pretreated with 0.3% polyethyleneimine, and washed 6 times with […] (50 mM Tris-HCl, 0.9% NaCl, pH 7.5 at 4° C.). Plates were dried overnight at room temperature, approximately […] of MicroScint™-20 (Perkin Elmer) added and bound radioactivity quantitated via liquid scintillation spectroscopy. Inhibition curves and saturation isotherms were analyzed using GraphPad Prism Software package (GraphPad Software, Inc., San Diego, Calif.). IC50 values were generated from concentration response curves using the Sigmoidal Dose Response (variable slope) algorithm in Prism GraphPad. Kd and Bmax values for the radioligand were generated from saturation isotherms using the Saturation Binding Global Fit algorithm in Prism GraphPad. pKi (negative decadic logarithm of Ki) values for test compounds were calculated from the best-fit IC50 values, and the Kd value of the radioligand, using the Cheng-Prusoff equation (Cheng & Prusoff (1973) Biochem. Pharmacol. 22(23):3099-3108): Ki=IC50/(1+[L]/Kd), where [L]=concentration radioligand.
Target sequence in this assay (P31645 whole entry): as above

[3] = molecular target: T2, NET (Homo sapiens, UniProt P23975); experiment: hNET membrane radioligand binding assay (3H-nisoxetine); set-up: expressed in transfected cells; host or cells: HEK-293; conditions: hNET membranes (HEK-293), 1.0 nM 3H-nisoxetine; for Ki: read-out: NET pKi (converted)
T2 sequence (P23975 whole entry): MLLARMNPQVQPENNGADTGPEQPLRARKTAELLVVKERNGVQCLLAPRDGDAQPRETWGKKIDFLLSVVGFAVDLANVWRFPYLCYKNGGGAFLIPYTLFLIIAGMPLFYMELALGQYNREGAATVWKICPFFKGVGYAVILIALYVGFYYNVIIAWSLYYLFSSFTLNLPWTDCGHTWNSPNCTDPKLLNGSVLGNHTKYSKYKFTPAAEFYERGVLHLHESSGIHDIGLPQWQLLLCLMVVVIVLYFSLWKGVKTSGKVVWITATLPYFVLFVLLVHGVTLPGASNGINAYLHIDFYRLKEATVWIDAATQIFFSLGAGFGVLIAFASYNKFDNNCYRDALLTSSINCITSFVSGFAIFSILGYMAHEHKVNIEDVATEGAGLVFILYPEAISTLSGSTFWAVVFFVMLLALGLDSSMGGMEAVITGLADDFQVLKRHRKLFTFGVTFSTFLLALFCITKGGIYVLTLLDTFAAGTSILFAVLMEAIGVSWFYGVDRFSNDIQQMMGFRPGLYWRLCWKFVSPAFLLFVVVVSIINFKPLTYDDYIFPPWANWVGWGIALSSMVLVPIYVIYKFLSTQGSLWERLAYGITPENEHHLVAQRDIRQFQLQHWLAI
Description: as §5, §6, §7, §8, §9

[4] = molecular target: T2, NET; experiment: hNET neurotransmitter uptake assay (3H-NE); format: cell-based; set-up: expressed in transfected cells; host or cells: HEK-293; conditions: norepinephrine reuptake inhibition, HEK-293 hNET cells, 3H-NE (no asterisk); for IC50: read-out: NET pIC50 (converted)
Description: as §1, §2, §3, §4

[5] = molecular target: T1, SERT; experiment: fluorescence-based serotonin uptake assay (Tsuruda et al. 2010); format: cell-based; conditions: serotonin reuptake inhibition, fluorescence-based assay (data indicated by an asterisk); read-out: SERT pIC50 (converted)
Target sequence in this assay (P31645 whole entry, species assumed): as the sequence (P31645 whole entry) above

[6] = molecular target: T2, NET; experiment: fluorescence-based norepinephrine uptake assay (Tsuruda et al. 2010); format: cell-based; conditions: norepinephrine reuptake inhibition, fluorescence-based assay (data indicated by an asterisk); read-out: NET pIC50 (converted)

| SMILES | IC50 [1] [nM] | SERT pKi [2] | Ki [3] [nM] | IC50 [4] [nM] | Ki [2] [nM] | IC50 [5] [nM] | IC50 [6] [nM] | NET pKi [3] | NET pIC50 [4] |
| --- | --- | --- | --- | --- | --- | --- | --- | --- | --- |
| COCCC(Oc1ccc(Cl)cc1C)C1CCNC1 (single isomer, unassigned) [5 (2nd peak)] | ≤ 10 | ≧8.0 | ≤ 10 | ≤ 10 |  |  |  |  |  |
| COC[C@H](Oc1cccc(Cl)c1C(F)(F)F)[C@H]1CCNC1 [Example 4-21, (S)-3-[(R)-1-(3-Chloro-2-trifluoromethylphenoxy)-2-methoxyethyl]pyrrolidine] | ≤ 100 |  | ≤ 10 | ≤ 10 | ≤ 10 |  |  |  |  |
| OC[C@@H](Oc1ccc(Cl)cc1Cl)[C@@H]1CCNC1 (stereo in doubt) [Example 2-1, (R)-2-(2,4-Dichlorophenoxy)-2-(S)-pyrrolidin-3-yl-ethanol] | ≤ 100 |  |  | ≤ 100 |  |  |  |  |  |
| COCC(Oc1cccc(Cl)c1Cl)C1CCNC1 (centres unmarked) [Example 4-6, 3-[1-(2,3-Dichlorophenoxy)-2-methoxyethyl]pyrrolidine] |  | ≧8.0 |  |  |  |  |  | ≧8.0 | ≧8.0 |
| CCOC[C@H](Oc1cccc2ccccc12)[C@H]1CCNC1 [Example 11, (S)-3-[(R)-2-Ethoxy-1-(naphthalen-1-yloxy)ethyl]pyrrolidine] | ≤ 10 |  |  | ≤ 10 |  |  |  |  |  |

Other lines, results leading:

| IC50 [1] [nM] | SERT pKi [2] | Ki [3] [nM] | IC50 [4] [nM] | Ki [2] [nM] | IC50 [5] [nM] | IC50 [6] [nM] | NET pKi [3] | NET pIC50 [4] | SMILES |
| --- | --- | --- | --- | --- | --- | --- | --- | --- | --- |
| ≤ 10 |  | ≤ 10 | ≤ 10 | ≤ 10 |  |  |  |  | CCOC[C@@H](Oc1cccc(Cl)c1Cl)[C@H]1CCNC1 [Example 7-8, (S)-3-[(S)-1-(2,3-Dichlorophenoxy)-2-ethoxyethyl]pyrrolidine] |
| ≤ 10 |  | ≤ 10 | ≤ 10 | ≤ 10 |  |  |  |  | Clc1cc(Cl)cc(O[C@@H](C2CCOCC2)[C@@H]2CCNC2)c1 [Example 13-30, (R)-3-[(S)-(3,5-Dichlorophenoxy)(tetrahydropyran-4-yl)methyl]pyrrolidine] |
| ≤ 10 |  | ≤ 10 | ≤ 10 | ≤ 10 |  |  |  |  | Clc1cccc(Cl)c1O[C@@H](C1CCOCC1)[C@H]1CCNC1 [Example 13-24, (S)-3-[(S)-(2,6-Dichlorophenoxy)(tetrahydropyran-4-yl)methyl]pyrrolidine] |
| ≤ 100 |  | ≤ 10 | ≤ 100 | ≤ 10 |  |  |  |  | Clc1cc(Cl)cc(O[C@H](C2CCOCC2)[C@@H]2CCNC2)c1 [Example 13-29, (R)-3-[(R)-(3,5-Dichlorophenoxy)(tetrahydropyran-4-yl)methyl]pyrrolidine] |
| ≤ 100 |  | ≤ 10 | ≤ 10 | ≤ 100 |  |  |  |  | Clc1ccc(O[C@@H](C2CCOCC2)[C@H]2CCNC2)c(Cl)c1 [Example 13-22, (S)-3-[(S)-(2,4-Dichlorophenoxy)(tetrahydropyran-4-yl)methyl]pyrrolidine] |
| ≤ 100 |  | ≤ 10 | ≤ 10 | ≤ 10 |  |  |  |  | Fc1cccc(O[C@@H](C2CCOCC2)[C@H]2CCNC2)c1Cl [Example 13-14, (S)-3-[(S)-(2-Chloro-3-fluorophenoxy)(tetrahydropyran-4-yl)methyl]pyrrolidine] |
|  |  | ≤ 10000 |  | ≤ 100 | ≤ 100 | ≤ 1000 |  |  | CC(C)OC[C@H](Oc1cccc(C(F)(F)F)c1)[C@@H]1CCNC1 [Example 9-2, (R)-3-[(R)-2-Isopropoxy-1-(3-trifluoromethylphenoxy)ethyl]pyrrolidine] |
|  |  | ≤ 100 |  | ≤ 10 | ≤ 100 | ≤ 100 |  |  | CC(C)OC[C@H](Oc1cccc(Cl)c1C(F)(F)F)[C@@H]1CCNC1 [Example 9-18, (R)-3-[(R)-1-(3-Chloro-2-trifluoromethylphenoxy)-2-isopropoxyethyl]pyrrolidine] |
|  |  | ≤ 100 |  | ≤ 10 | ≤ 10 | ≤ 100 |  |  | FC(F)(F)c1ccc(O[C@@H](C2CCOCC2)[C@H]2CCNC2)cc1 [Example 13-11, (S)-3-[(S)-(Tetrahydropyran-4-yl)(4-trifluoromethylphenoxy)methyl]pyrrolidine] |
|  |  | ≤ 1000 |  | ≤ 1000 | ≤ 1000 | ≤ 100 |  |  | CC(C)OC[C@H](Oc1c(Cl)cccc1Cl)[C@@H]1CCNC1 [Example 9-27, (R)-3-[(R)-1-(2,6-Dichlorophenoxy)-2-isopropoxyethyl]pyrrolidine] |
|  |  | ≤ 100 |  | ≤ 10 | ≤ 100 | ≤ 100 |  |  | CC(C)OC[C@H](Oc1cccc(Cl)c1Cl)[C@@H]1CCNC1 [Example 9-6, (R)-3-[(R)-1-(2,3-Dichlorophenoxy)-2-isopropoxyethyl]pyrrolidine] |
